Data on two molecules can be found in paper PMC7734798 (ACS Medicinal Chemistry Letters, 2020).

Some results are limits rather than exact numbers.

A short description of series [1]: Rat plasma stability assay (LC-DAD-MS/MS). Type of series: in vitro ADME. Conditions: 1 h of incubation at 37 °C. Here is the method:
Our aim was to develop plasma-stable conjugates that would be hydrolyzed in the brain. Selective localized hydrolysis of conjugates 1 and 2 would permit a CNS-targeted profile and less side effects. Thus, plasma stability is an important pharmacokinetic prerequisite for 1 and 2. As reported by stability assays performed by LC-DAD-MS/MS analysis (Figure 3), conjugates 1 and 2 are stable for more than 85% after 1 h of incubation at 37 °C in rat plasma. […] The mean plasma remaining fraction of the two conjugates after 1 h of incubation was compared by means of t test and a statistically relevant difference (p < 0.01) was observed.
(§1) Velp (Usmate, Italy) RX3 vortex mixer and an Elma (Singen, Germany) Sonic T310 Trans ultrasonic […]
Chromatographic runs were obtained on an Agilent (Palo Alto, Ca, US) ZORBAX SB-C18 column (50 × 2.1 mm I.D., 3.5 µm particles), maintained at room temperature and equipped with a guard column. […] For compound stability and hydrolysis studies, multiple reaction monitoring (MRM) acquisition mode was set up for both compounds 1 and 2, by flow-injection analysis directly in the MS source, in order to optimize ionization parameters and to select two exclusive MRM m/z transitions for each analyte, exploited for quantitative purposes and for qualitative confirmation, respectively. […]

Series [2] in a line: Brain stability / hydrolysis kinetics in rat brain homogenate (LC-DAD-MS/MS). The format is in vitro ADME. Conditions: 37 °C; for hydrolysis in rat brain homogenate in presence of FAAH inhibitor PF-3845: 5 μM PF-3845; for time to total disappearance of starting compound in rat brain homogenate / half-life at 1 µg/mL: absence of FAAH inhibitor; for half-life at 1 µg/mL: rat, brain homogenate. Here is the method:
We anticipated that, once they entered into the brain, conjugates would be hydrolyzed to the individual components by intracellular metabolic enzymes processing fatty acid derivatives (e.g., FAAH).[9],[17] Thus, the stability of 1 and 2 was evaluated by LC-DAD-MS/MS analysis of rat brain homogenate incubated with the conjugates, which was sampled at regular intervals over 1 h. To obtain initial clues on the implication of FAAH enzymes in hydrolysis, the assays were performed in the absence and presence of 5 μM FAAH inhibitor PF-3845.[9]
as §1
Chromatographic runs were obtained on an Agilent (Palo Alto, Ca, US) ZORBAX SB-C18 column (50 × 2.1 mm I.D., 3.5 µm particles), maintained at room temperature and equipped with a guard column. The mobile phase was a mixture of 0.1% aqueous formic acid (A) and acetonitrile (B), flowing at a constant rate of 0.3 mL/min. The mobile phase was set in isocratic mode with A:B ratio of (65:35, V:V); the two components of the mobile phase were filtered through Sartorius (Göttingen, Germany) membrane filters (47 mm diameter, polyamide, 0.2 µm pore size) and degassed by an ultrasonic bath. The injection volume was 10 μL. For compound purity, Total Ion Current (TIC) mode was used and DAD chromatograms were checked at 200 nm and 540 nm. For compound stability and hydrolysis studies, multiple reaction monitoring (MRM) acquisition mode was set up for both compounds 1 and 2, by flow-injection analysis directly in the MS source, in order to optimize ionization parameters and to select two exclusive MRM m/z transitions for each analyte, exploited for quantitative purposes and for qualitative confirmation, respectively.
Sample analysis and method validation […]
For compound stability and hydrolysis studies, after setting up MRM acquisition mode for both 1 and 2 as described previously, the LC-MS/MS method was coupled to an optimized sample preparation protocol to be applied to biological matrices, namely rat plasma and rat brain homogenate. Briefly, for both matrices, 1-mL sample was brought to 37±0.5°C by means of a thermostatted water bath.
Then, 50µL of analyte working solution was added to the matrix sample in order to obtain a final […]
concentration of 1 µg/mL. […]
plasma) and hydrolysis (in brain homogenate). Then, at regular intervals (5, 10, 15, 20, 25, 30, 45, 60 min) a 50-µL aliquot was sampled from the vial, added with 50 µL of ice-cold ACN and centrifuged for 5 min at 4500 rpm at 5°C. The resulting supernatant was subjected to an original miniaturized extraction procedure, based on microextraction by packed sorbent (MEPS), in order to purify the samples from potential interfering signals deriving from the matrices. The solution obtained after MEPS procedure was directly injected into the LC-MS/MS system under the optimized conditions previously described. Compound quantitation was obtained by integrating peak areas obtained from sample analysis and by interpolation on the linearity curve of each analyte. All analyses were carried out in triplicate and results were then expressed as % of remaining compound with respect to that assessed at t0 (100%), plotted against the defined time points.
In order to be applied for stability and hydrolysis studies, the MEPS-LC-MS/MS method was fully validated on both plasma and brain homogenate samples fortified with known amounts of compounds 1 and 2, pretreated and analyzed right after the addition of analyte working solutions. Method validation was performed according to the main international guidelines [ICH Harmonised Tripartite Guideline. Validation of Analytical Procedures: Text and Methodology Q2(R1); International Conference on Harmonisation of Technical] in terms of linearity (including limit of detection, LOD and limit of quantitation, LOQ), precision, accuracy, extraction yield and matrix effect.

As to `CC/C=C\C/C=C\C/C=C\CCCCCCCC(=O)NCCNC(=O)C(CCC)CCC` [compound 1], the “percentage remaining upon incubation in rat plasma” value in series [1] is listed as 89%. Also, in series [2], the “hydrolysis in rat brain homogenate in presence of FAAH inhibitor PF-3845” value is “blocks the hydrolysis of both 1 and 2 to a large extent”; the “time to total disappearance of starting compound in rat brain homogenate” value is at most 1 h; the half-life at 1 µg/mL is around 23 min.

Take `CC/C=C\C/C=C\C/C=C\CCCCCCCC(=O)NCCOC(=O)C(CCC)CCC` [compound 2]: in series [1], the “percentage remaining upon incubation in rat plasma” value is 85%. Further, in series [2], the “hydrolysis in rat brain homogenate in presence of FAAH inhibitor PF-3845” value is “blocks the hydrolysis of both 1 and 2 to a large extent”; the “time to total disappearance of starting compound in rat brain homogenate” value is recorded as at most 1 h; the half-life at 1 µg/mL is around 16 min.
